The nature of series [1]: Evaluation of light resistance of ink jet print (xenon fade meter). To be noted: amount of energy required for OD value (about 1.0) to decrease to 70%; ink with 6.0% by weight dye, pH 9.0-9.5 (ammonia), printed on PM Photo Paper; xenon 36 W/m^2 (300 to 400 nm), 24° C., 55% humidity. The series is classed as physicochemical. From the text: Preparation of Samples for Test:
An ink, the pH of which was adjusted between 9.0 and 9.5 with ammonia, prepared using the composition shown above was set into an ink jet printer (EM-900C manufactured by Seiko Epson Corp.). A piece of paper specially designed for ink jet (PM Photo Paper (Model: KA420PSK) manufactured by Seiko Epson Corp.) was printed with the ink, and it was used as a sample to be tested.
Light irradiation: The sample to be tested was set to a holder. Light irradiation with a xenon fade meter was carried out under the following condition:
Method for evaluation: The sample is taken out after each irradiation of an energy of 3000 kJ/m^2, and a part with an optical density (OD value) of about 1.0 is measured with a Macbeth density meter. The total amount of light irradiated at the time when the OD value has become 70% the original value is calculated.
Criterion for evaluation: The amount of energy required for the OD value to decrease to 70%.

Series [2] in a line: Mutagenicity test (Ames test).
Another series in a line: Solubility in water. In kind it is physicochemical. As to conditions: under an ammoniacal alkaline condition.

Regarding `Cc1cc(-c2ccc(N=Nc3c(S(=O)(=O)O)cc4cc(S(=O)(=O)O)c(N=Nc5ccccc5)c(O)c4c3N)c(C)c2)ccc1N=Nc1ccc(N)cc1N` [C. I. Direct Black 154, reference compound], in series [1], the “Evaluation of light resistance” value was “×”. On the same count and under the same terms, then `Nc1cc(O)ccc1N=Nc1ccc(Nc2ccc(N=Nc3c(S(=O)(=O)O)cc4cc(S(=O)(=O)O)c(N=Nc5ccccc5)c(O)c4c3N)cc2S(=O)(=O)O)cc1` [C. I. Direct Black 168, reference compound], with “Δ (Not less than 10,000 kJ/m^2 and less than 40,000 kJ/m^2)”. Turning to `Nc1c(N=Nc2ccc3cc(S(=O)(=O)O)c(N=Nc4ccccc4C(=O)O)c(O)c3c2)cc(S(=O)(=O)O)c2cc(S(=O)(=O)O)c(N=Nc3ccccc3C(=O)O)c(O)c12` [Trisazo compound (1)], the “Evaluation of light resistance” value in series [1] was “⊚ (Not less than 70,000 kJ/m^2)”. In addition, in series [2], the “mutagenicity test (Ames test), ratio” value amounted to 1.27 times and the “result of mutagenicity test (Ames test)” value is reported as “negative”. The compound also came in with a solubility in water in the series “Solubility in water” of 14%.

With `Nc1c(N=Nc2ccc3c(O)c(N=Nc4ccccc4C(=O)O)c(S(=O)(=O)O)cc3c2)cc(S(=O)(=O)O)c2cc(S(=O)(=O)O)c(N=Nc3ccccc3C(=O)O)c(O)c12` [Trisazo compound (2)], the “Evaluation of light resistance” value in series [1] is listed as “⊚ (Not less than 70,000 kJ/m^2)”. Same read-out and setting: with `CCOc1ccc(N=Nc2c(S(=O)(=O)O)cc3ccc(N=Nc4cc(S(=O)(=O)O)c5cc(S(=O)(=O)O)c(N=Nc6ccccc6C(=O)O)c(O)c5c4N)cc3c2O)cc1` [Trisazo compound (5)] the entry was “⊚ (Not less than 70,000 kJ/m^2)”; with `COc1ccc(N=Nc2c(S(=O)(=O)O)cc3c(S(=O)(=O)O)cc(N=Nc4ccc5cc(S(=O)(=O)O)c(N=Nc6cc(Cl)ccc6C(=O)O)c(O)c5c4)c(N)c3c2O)c(S(=O)(=O)O)c1` [Trisazo compound (6)], “◯”. On the same count and under the same terms, then `Nc1c(N=Nc2ccc3cc(S(=O)(=O)O)c(N=Nc4ccccc4C(=O)O)c(O)c3c2)cc(S(=O)(=O)O)c2cc(S(=O)(=O)O)c(N=Nc3cc(C(=O)O)ccc3C(=O)O)c(O)c12` [Trisazo compound (8)], with “⊚ (Not less than 70,000 kJ/m^2)”.

Consider `Nc1c(N=Nc2ccc3cc(S(=O)(=O)O)c(N=Nc4cccc(C(=O)O)c4)c(O)c3c2)cc(S(=O)(=O)O)c2cc(S(=O)(=O)O)c(N=Nc3ccccc3C(=O)O)c(O)c12` [Trisazo compound (11)], for which, in series [1], the “Evaluation of light resistance” value is “◯”. The same measure, in the same setting: then `Nc1c(N=Nc2ccccc2C(=O)O)cc(S(=O)(=O)O)c2cc(S(=O)(=O)O)c(/N=N\c3ccc4cc(S(=O)(=O)O)c(N=Nc5ccccc5C(=O)O)c(O)c4c3)c(O)c12` [Trisazo compound (14)], with “⊚ (Not less than 70,000 kJ/m^2)”.
